Where a name gives a salt, the structure may show the parent alone. Read-outs that look alike come from different tables or passages of the source.
Legend:
Assay type in all cases: biochemical
TYK2 = TYK2 (Homo sapiens, UniProt P29597); experiment: TYK2 kinase inhibition (Table A1)
[1] = molecular target: T1, human JAK3 (a.a. 781-1124) (Homo sapiens, UniProt P52333); experiment: In vitro JAK kinase assay (HTRF, phosphorylation of a biotinylated peptide), JAK3
T1 construct: JAK3 (a.a. 781-1124); His tag (N); made in house; host or cells: insect cells (baculovirus)
How it was run: (§1)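 Phosphorylation of a biotinylated peptide by the JAK kinase domain, detected by HTRF with Eu-Py20 and SA-APC. ATP was 90 μM for JAK1, 30 μM for JAK2 and 3 μM for JAK3. Reactions ran 1 h at room temperature and were stopped with EDTA, followed by 40 min antibody binding.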

[2] = molecular target: T2, Recombinant Human Anaplastic Lymphoma Kinase (Homo sapiens, UniProt Q9UM73); experiment: ALK HTRF kinase assay
T2 construct: purchased Invitrogen, Carlsbad, Calif
How it was run: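 IC50 was obtained from a logistic fit of signal versus log inhibitor concentration, using pre- and post-transition baselines and a Hill slope. The signal reported tyrosine phosphorylation of a biotinylated peptide by recombinant human kinase, detected as Eu-to-APC energy transfer.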

[3] = molecular target: T3, human JAK1 (a.a. 837-1142) (Homo sapiens, UniProt P23458); experiment: In vitro JAK kinase assay (HTRF, phosphorylation of a biotinylated peptide), JAK1; details: read-out: JAK1 IC50
T3 construct: human JAK1 (a.a. 837-1142); His tag (N); made in house; host or cells: insect cells (baculovirus)
How it was run: as §1

[4] = molecular target: T4, human JAK2 (a.a. 828-1132) (Homo sapiens, UniProt O60674); experiment: In vitro JAK kinase assay (HTRF, phosphorylation of a biotinylated peptide), JAK2
T4 construct: JAK2 (a.a. 828-1132); His tag (N); made in house; host or cells: insect cells (baculovirus)
How it was run: as §1

[5] = percentage inhibition of the example compound at a concentration of 500 nM or 1 mM (not specified which)
[6] = method AA1 (3 μM ATP) or AA2 (1000 μM ATP), not stated per value
[7] = compound at 500 nM or 1 mM, 90 μM ATP
[8] = method AA1 (90 μM ATP) or AA2 (1000 μM ATP), not stated per value
[9] = method AA1 (30 μM ATP) or AA2 (1000 μM ATP), not stated per value
[10] = Table B1, cells without percent sign

Chain of TYK2 (P29597 whole entry): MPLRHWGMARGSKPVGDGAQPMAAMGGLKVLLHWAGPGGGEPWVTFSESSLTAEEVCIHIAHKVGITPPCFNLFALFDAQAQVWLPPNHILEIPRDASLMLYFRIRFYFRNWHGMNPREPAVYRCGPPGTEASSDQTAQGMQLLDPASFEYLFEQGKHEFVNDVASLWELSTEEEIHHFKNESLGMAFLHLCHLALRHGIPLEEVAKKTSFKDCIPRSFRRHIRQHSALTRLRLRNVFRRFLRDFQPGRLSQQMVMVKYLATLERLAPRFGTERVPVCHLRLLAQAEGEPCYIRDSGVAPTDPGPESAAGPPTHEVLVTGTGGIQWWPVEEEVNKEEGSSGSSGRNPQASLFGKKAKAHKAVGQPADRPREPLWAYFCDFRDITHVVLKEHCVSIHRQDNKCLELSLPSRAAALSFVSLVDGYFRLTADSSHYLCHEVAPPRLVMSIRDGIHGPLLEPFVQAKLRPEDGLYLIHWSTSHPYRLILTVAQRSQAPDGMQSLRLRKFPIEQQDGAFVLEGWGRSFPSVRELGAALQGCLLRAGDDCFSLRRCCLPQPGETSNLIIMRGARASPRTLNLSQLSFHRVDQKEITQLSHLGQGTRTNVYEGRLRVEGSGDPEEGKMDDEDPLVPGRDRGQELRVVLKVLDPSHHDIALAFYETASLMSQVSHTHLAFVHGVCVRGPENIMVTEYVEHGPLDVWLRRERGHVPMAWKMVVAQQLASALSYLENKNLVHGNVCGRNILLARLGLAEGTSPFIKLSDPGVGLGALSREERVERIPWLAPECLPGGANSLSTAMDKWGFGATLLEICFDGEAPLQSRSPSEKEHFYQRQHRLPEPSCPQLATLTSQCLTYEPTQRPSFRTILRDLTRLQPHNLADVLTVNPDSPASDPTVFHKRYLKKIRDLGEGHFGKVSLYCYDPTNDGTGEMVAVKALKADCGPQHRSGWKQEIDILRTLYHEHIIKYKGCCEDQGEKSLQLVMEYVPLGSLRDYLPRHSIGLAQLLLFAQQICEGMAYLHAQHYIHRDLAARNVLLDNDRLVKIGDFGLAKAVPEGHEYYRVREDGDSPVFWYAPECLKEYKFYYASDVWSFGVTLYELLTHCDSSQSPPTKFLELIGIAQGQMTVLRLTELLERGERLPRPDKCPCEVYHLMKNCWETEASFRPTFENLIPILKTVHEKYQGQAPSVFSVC
T3 sequence (P23458 849-1154): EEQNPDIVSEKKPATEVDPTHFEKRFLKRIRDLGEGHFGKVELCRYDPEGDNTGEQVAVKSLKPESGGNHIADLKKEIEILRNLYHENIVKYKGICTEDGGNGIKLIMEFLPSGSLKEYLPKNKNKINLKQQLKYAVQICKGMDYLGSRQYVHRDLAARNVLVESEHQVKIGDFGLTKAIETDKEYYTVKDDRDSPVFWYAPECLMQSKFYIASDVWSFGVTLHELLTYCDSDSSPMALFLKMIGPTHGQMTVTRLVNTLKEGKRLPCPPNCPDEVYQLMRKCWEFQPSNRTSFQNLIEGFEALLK
T4 sequence (O60674 828-1132): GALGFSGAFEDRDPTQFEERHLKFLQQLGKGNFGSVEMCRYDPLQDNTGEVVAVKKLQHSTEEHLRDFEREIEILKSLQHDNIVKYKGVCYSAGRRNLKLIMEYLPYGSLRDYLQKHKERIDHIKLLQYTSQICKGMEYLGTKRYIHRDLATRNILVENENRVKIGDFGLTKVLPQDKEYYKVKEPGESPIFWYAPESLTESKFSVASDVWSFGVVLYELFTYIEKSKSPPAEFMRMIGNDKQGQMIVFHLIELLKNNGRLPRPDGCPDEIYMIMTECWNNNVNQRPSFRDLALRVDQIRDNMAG
T2 sequence (Q9UM73 19-1620): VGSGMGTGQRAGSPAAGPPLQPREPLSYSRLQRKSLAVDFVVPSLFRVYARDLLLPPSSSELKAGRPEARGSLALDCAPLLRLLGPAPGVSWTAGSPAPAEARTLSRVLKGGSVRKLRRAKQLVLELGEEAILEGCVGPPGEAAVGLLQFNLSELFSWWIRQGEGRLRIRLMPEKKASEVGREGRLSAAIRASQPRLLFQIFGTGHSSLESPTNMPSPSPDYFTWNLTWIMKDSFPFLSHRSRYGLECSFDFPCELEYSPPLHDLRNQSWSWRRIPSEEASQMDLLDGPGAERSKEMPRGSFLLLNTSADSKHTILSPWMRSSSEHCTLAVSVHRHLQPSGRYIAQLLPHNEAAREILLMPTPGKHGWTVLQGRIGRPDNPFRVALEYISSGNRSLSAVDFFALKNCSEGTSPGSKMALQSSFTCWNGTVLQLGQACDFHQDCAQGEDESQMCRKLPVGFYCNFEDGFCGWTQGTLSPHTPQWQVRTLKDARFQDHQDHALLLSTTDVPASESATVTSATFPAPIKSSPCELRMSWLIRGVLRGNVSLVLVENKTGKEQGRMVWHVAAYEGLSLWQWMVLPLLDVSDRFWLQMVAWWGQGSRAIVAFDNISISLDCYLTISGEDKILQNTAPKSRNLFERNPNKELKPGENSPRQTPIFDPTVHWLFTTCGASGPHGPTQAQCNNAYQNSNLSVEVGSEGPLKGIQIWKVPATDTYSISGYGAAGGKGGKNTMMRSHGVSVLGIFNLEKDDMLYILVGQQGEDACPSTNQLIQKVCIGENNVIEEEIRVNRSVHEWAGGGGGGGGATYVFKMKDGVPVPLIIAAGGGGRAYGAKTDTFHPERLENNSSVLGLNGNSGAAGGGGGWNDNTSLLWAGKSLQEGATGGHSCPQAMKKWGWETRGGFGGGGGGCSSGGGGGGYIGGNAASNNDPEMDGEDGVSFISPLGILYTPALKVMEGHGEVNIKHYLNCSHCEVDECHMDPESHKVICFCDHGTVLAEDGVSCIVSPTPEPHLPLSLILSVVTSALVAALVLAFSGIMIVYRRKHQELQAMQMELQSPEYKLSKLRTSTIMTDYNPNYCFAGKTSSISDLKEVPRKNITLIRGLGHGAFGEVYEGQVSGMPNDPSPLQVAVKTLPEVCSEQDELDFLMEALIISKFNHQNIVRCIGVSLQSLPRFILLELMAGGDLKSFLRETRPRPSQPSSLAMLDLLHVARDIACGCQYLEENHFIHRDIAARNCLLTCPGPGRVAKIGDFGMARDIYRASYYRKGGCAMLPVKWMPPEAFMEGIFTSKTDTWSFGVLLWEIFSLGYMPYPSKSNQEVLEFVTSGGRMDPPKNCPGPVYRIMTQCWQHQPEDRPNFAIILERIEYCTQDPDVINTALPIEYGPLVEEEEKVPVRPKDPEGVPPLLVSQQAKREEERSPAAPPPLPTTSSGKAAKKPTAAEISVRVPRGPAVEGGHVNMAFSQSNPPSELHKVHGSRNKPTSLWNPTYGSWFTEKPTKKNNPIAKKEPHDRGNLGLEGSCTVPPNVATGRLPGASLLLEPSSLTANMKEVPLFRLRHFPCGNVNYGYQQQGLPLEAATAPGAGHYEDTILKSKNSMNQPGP
T1 sequence (P52333 781-1124): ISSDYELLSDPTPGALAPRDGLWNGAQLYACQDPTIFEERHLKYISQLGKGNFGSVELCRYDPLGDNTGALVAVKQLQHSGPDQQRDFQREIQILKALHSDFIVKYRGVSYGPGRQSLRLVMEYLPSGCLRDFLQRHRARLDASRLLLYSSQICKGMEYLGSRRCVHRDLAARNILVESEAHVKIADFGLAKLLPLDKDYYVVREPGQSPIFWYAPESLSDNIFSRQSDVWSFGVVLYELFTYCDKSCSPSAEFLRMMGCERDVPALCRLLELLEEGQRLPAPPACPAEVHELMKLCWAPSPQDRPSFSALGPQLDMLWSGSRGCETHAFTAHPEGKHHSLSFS

SMILES | IC50 (TYK2; Table B1) [nM] | IC50 ([1]; Table B1) [nM] | IC50 ([3]; Table B1) [nM] | IC50 ([4]; Table B1) [nM] | IC50 (TYK2) [nM] | IC50 [1, 6] [nM] | ALK % of inhibition at a concentration of 500 nM or 1 mM [2, 7] [%] | IC50 [3, 8] [nM] | IC50 [4, 9] [nM] | other results
O=C(CC1CCN(C(=O)c2ccccc2)CC1)Nc1ccc2cc1CCc1cccc(c1)Nc1ncc(Cl)c(n1)N2 [Example A56, 2-(1-Benzoylpiperidin-4-yl)-N-[6-chloro-2,4,8,22-tetraazatetracyclo[14.3.1.1(3,7).1(9,13)]docosa-1(20),3(22),4,6,9(21),10,12,16,18-nonaen-12-yl]acetamide trifluoroacetate] |  |  |  |  | 10 | 90 | 26 | 4.2 | 7.3 | 
Cc1noc(C)c1NC(=O)Nc1ccc2cc1CCc1cccc(c1)Nc1ncc(Cl)c(n1)N2 [Example B94, N-[6-Chloro-2,4,8,22-tetraazatetracyclo[14.3.1.1(3,7).1(9,13)]docosa-1(20), 3(22),4,6,9(21),10,12,16,18-nonaen-12-yl]-N′-(3,5-dimethylisoxazol-4-yl)urea trifluoroacetate] | 13 | 51 | 3.1 | 3.8 |  |  |  |  |  | IC50 [2, 10]: > 1000 nM
CS(=O)(=O)c1ccc(-c2cc3cc(c2)Nc2ncc(Cl)c(n2)Nc2cccc(c2)OCC3)cc1 [Example D29, 6-Chloro-19-[4-(methylsulfonyl)phenyl]-14-oxa-2,4,8,23-tetraazatetracyclo[15.3.1.1(3,7).1(9,13)]tricosa-1(21),3(23),4,6,9(22),10,12,17,19-nonaene trifluoroacetate] |  |  |  |  |  |  |  |  |  | IC50 (TYK2; Table D1): 3.4 nM; IC50 ([1]; Table D1): 14 nM; IC50 ([2]; Table D1, 90 μM ATP): 238 nM; IC50 ([3]; Table D1): 2 nM; IC50 ([4]; Table D1): 0.5 nM
COCCNC(=O)Nc1ccc2cc1CCc1cccc(c1)Nc1ncc(Cl)c(n1)N2 [Example B243, N-[6-Chloro-2,4,8,22-tetraazatetracyclo[14.3.1.1(3,7).1(9,13)]docosa-1(20),3(22),4,6,9(21),10,12,16,18-nonaen-12-yl]-N′-(2-methoxyethyl)urea trifluoroacetate] | 3.1 | 16 | 0.92 | 1.5 |  |  |  |  |  | ALK % of inhibition at a concentration of 500 nM or 1 mM ([2]; compound at a concentration of 500 nM or 1 mM (not specified), cells shown as percentage): 14%
CN1CCN(C(=O)c2cc3cc(c2)Nc2nc(ncc2Cl)Nc2cccc(c2)CC3)CC1 [Example B8, 6-Chloro-11-[(4-methylpiperazin-1-yl)carbonyl]-2,4,8,22-tetraazatetracyclo[14.3.1.1(3,7).1(9,13)]docosa-1(20),3(22),4,6,9(21),10,12,16,18-nonaene trifluoroacetate] | > 1000 | > 1000 | 500 | 350 |  |  |  |  |  | IC50 [2, 10]: > 1000 nM
Clc1cnc2nc1Nc1cccc(c1)OCCc1cc(cc(-c3ccnc(N4CCNCC4)c3)c1)N2 [Example D27, 6-Chloro-19-(2-piperazin-1-ylpyridin-4-yl)-14-oxa-2,4,8,23-tetraazatetracyclo[15.3.1.1(3,7).1(9,13)]tricosa-1(21),3(23),4,6,9(22),10,12,17,19-nonaene tris(trifluoroacetate)] |  |  |  |  |  |  |  |  |  | IC50 (TYK2; Table D1): 3.9 nM; IC50 ([1]; Table D1): 3.5 nM; IC50 ([2]; Table D1, 90 μM ATP): 32 nM; IC50 ([3]; Table D1): 1.5 nM; IC50 ([4]; Table D1): 0.3 nM
Cc1cc(C(=O)N2CCC(C(=O)Nc3ccc4cc3CCc3cccc(c3)Nc3ncc(Cl)c(n3)N4)CC2)no1 [Example A120, N-[6-Chloro-2,4,8,22-tetraazatetracyclo[14.3.1.1(3,7).1(9,13)]docosa-1(20),3(22),4,6,9(21),10,12,16,18-nonaen-12-yl]-1-[(5-methylisoxazol-3-yl)carbonyl]piperidine-4-carboxamide trifluoroacetate] |  |  |  |  | 37 | 112 | 42 | 21 | 16 | 
Cc1noc(C)c1C(=O)N1CCC(CC(=O)Nc2ccc3cc2CCc2cncc(c2)Nc2ncc(Cl)c(n2)N3)CC1 [Example A156, N-[6-Chloro-2,4,8,18,22-pentaazatetracyclo[14.3.1.1(3,7).1(9,13)]docosa-1(20),3(22),4,6,9(21),10,12,16,18-nonaen-12-yl]-2-{1-[(3,5-dimethylisoxazol-4-yl)carbonyl]piperidin-4-yl}acetamide bis(trifluoroacetate)] |  |  |  |  | 2500 | > 10000 | 17 | 96 | 917 | 
Cc1cc(C(=O)N2CCC(CC(=O)Nc3ccc4cc3CCc3cccc(c3)Nc3ncc(Cl)c(n3)N4)CC2)no1 [Example A86, N-[6-Chloro-2,4,8,22-tetraazatetracyclo[14.3.1.1(3,7).1(9,13)]docosa-1(20),3(22),4,6,9(21),10,12,16,18-nonaen-12-yl]-2-{1-[(5-methylisoxazol-3-yl)carbonyl]piperidin-4-yl}acetamide trifluoroacetate] |  |  |  |  | 1.5 | 29 | 32 | 0.8 | 2.2 | 
O=S(=O)(Nc1ccc2cc1CCc1cccc(c1)Nc1ncc(Cl)c(n1)N2)c1ccccc1 [Example B136, N-[6-Chloro-2,4,8,22-tetraazatetracyclo[14.3.1.1(3,7).1(9,13)]docosa-1(20), 3(22),4,6,9(21),10,12,16,18-nonaen-12-yl]benzenesulfonamide trifluoroacetate] | 0.76 | 2.3 | 0.24 | 0.1 |  |  |  |  |  | IC50 [2, 10]: 240 nM
CCC(=O)N1CCC(CC(=O)Nc2ccc3cc2CCc2cccc(c2)Nc2ncc(Cl)c(n2)N3)CC1 [Example A90, N-[6-Chloro-2,4,8,22-tetraazatetracyclo[14.3.1.1(3,7).1(9,13)]docosa-1(20), 3(22),4,6,9(21),10,12,16,18-nonaen-12-yl]-2-(1-propionylpiperidin-4-yl)acetamide trifluoroacetate] |  |  |  |  | 4.9 | 68 | 30 | 4.9 | 5.4 | 

More lines, main results first:

IC50 (TYK2; Table B1) [nM] | IC50 ([1]; Table B1) [nM] | IC50 ([3]; Table B1) [nM] | IC50 ([4]; Table B1) [nM] | IC50 (TYK2) [nM] | IC50 [1, 6] [nM] | ALK % of inhibition at a concentration of 500 nM or 1 mM [2, 7] [%] | IC50 [3, 8] [nM] | IC50 [4, 9] [nM] | SMILES | other results
38 | > 400 | 15 | 148 |  |  |  |  |  | O=C(Nc1ccc2cc1CCc1cncc(c1)Nc1ncc(Cl)c(n1)N2)N1CCN(c2ccccc2Cl)CC1 [Example B305, N-[6-Chloro-2,4,8,18,22-pentaazatetracyclo[14.3.1.1(3,7).1(9,13)]docosa-1(20),3(22),4,6,9(21),10,12,16,18-nonaen-12-yl]-4-(2-chlorophenyl)piperazine-1-carboxamide bis(trifluoroacetate)] | ALK % of inhibition at a concentration of 500 nM or 1 mM [2, 5]: 79%
> 200 | > 200 | 44 | 199 |  |  |  |  |  | CNCc1ccc2cc1CCc1cncc(c1)Nc1ncc(Cl)c(n1)N2 [Example B334, 1-[6-Chloro-2,4,8,18,22-pentaazatetracyclo[14.3.1.1(3,7).1(9,13)]docosa-1(20),3(22),4,6,9(21),10,12,16,18-nonaen-12-yl]-N-methylmethanamine trihydrochloride] | ALK % of inhibition at a concentration of 500 nM or 1 mM [2, 5]: 72%
> 200 | > 200 | 52 | 140 |  |  |  |  |  | CN(Cc1ccc2cc1CCc1cncc(c1)Nc1ncc(Cl)c(n1)N2)C(=O)C1CCN(C(=O)c2ccno2)CC1 [Example B336, N-{[6-Chloro-2,4,8,18,22-pentaazatetracyclo[14.3.1.1(3,7).1(9,13)]docosa-1(20),3(22),4,6,9(21),10,12,16,18-nonaen-12-yl]methyl}-1-(isoxazol-5-ylcarbonyl)-N-methylpiperidine-4-carboxamide bis(trifluoroacetate)] | ALK % of inhibition at a concentration of 500 nM or 1 mM [2, 5]: 11%
